Earlier results as cited in article PMC11071064 (Nuclear medicine and biology, 2022).

Tests used:
RIPK1 [1] = details: read-out: EC50 (potency)
[2] = pH 7.4
RIPK1 [3] = details: read-out: IC50 for binding toward RIPK1
[4] = not given; remark: listed apart in the source

metabolic stability t1/2 | EC50 (RIPK1 [1]) | solubility [2] | IC50 (RIPK1 [3]) | log D [4] | SMILES
< 5 min | 210 nM |  |  |  | CN1C(=O)NC(Cc2c[nH]c3c(Cl)cccc23)C1=O (stereo not shown) [Nec-1s]
< 5 min | 490 nM |  |  |  | CN1C(=O)C(Cc2c[nH]c3ccccc23)NC1=S (stereo not shown) [Nec-1]
 |  | ~ 450 μM | 1 nM | 3.8 | CN1C(=O)[C@@H](NC(=O)c2n[nH]c(Cc3ccccc3)n2)COc2ccccc21 [Compound 4]
